Some test systems named below: 786-0 renal; A498 renal; A549 NSCLC; DMS 273 small cell lung; KM12 colon; MOLT-4 leukemia; NCI-H23 lung; OVCAR-8 ovarian; SK-MEL-2 melanoma; SW-620 colon.
Test in all cases: inhibition of tumour cell growth, NCI panel, 48 h

Values joined by “and” are separate entries in the source; they are usually repeats but may differ in a detail not shown here. Equal values may be shown once.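 Exposure lasted 48 hours, with cells grown in 96-well plates and compounds tested at five concentrations. Here, GI50 denotes the concentration required for 50% inhibition of growth. TGI marks complete inhibition of growth.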

In the case of `O=C(O)C(O)C(O)C1[O][Sb][O]C1CO` (configuration not stated), the GI50 in the experiment on 786-0 renal, with A498 renal, in the experiment on A549 NSCLC, in the experiment with DMS 273 small cell lung, with KM12 colon and in the experiment on MOLT-4 leukemia was over 100 µM in each case. Also, the GI50 was over 100 µM in the experiment with NCI-H23 lung; over 100 µM in the experiment with OVCAR-8 ovarian; 85.8 µM and 36.8 µM with SK-MEL-2 melanoma; over 100 µM in the experiment on SW-620 colon. Also, the TGI in the experiment with 786-0 renal, in the experiment on A498 renal, with A549 NSCLC, in the experiment on DMS 273 small cell lung, with KM12 colon and in the experiment with MOLT-4 leukemia was over 100 µM throughout. The TGI in the experiment with NCI-H23 lung, in the experiment on OVCAR-8 ovarian, with SK-MEL-2 melanoma and with SW-620 colon was over 100 µM throughout.

Regarding `C=C1C(=O)C23C(CC(OC(C)=O)C1[C@@H]2OC(C)=O)C1(C)C(OC(C)=O)CCC(C)(C)C1C[C@@H]3OC(C)=O` (some centres not stated), the TGI in the experiment on 786-0 renal turned out to be 2.73 µM; with A498 renal it was 3.4 µM; in the experiment with A549 NSCLC it was 3.05 µM; in the experiment on DMS 273 small cell lung, 3.07 µM; with KM12 colon it was 3.49 µM; in the experiment with OVCAR-8 ovarian it was 1.59 µM. Besides, the figures for the TGI in the experiment on SK-MEL-2 melanoma and in the experiment with SW-620 colon were 3.37 µM and 2.75 µM, respectively.

For `Nc1nc(Cl)cc(NCCCCCCCCCCNc2cc(Cl)nc(N)n2)n1`, the TGI in the experiment with 786-0 renal is 91.5 µM; in the experiment with A549 NSCLC it was over 100 µM; with DMS 273 small cell lung, over 100 µM; with KM12 colon, over 100 µM; in the experiment with NCI-H23 lung, over 100 µM; with OVCAR-8 ovarian, 63 µM. Further, the TGI in the experiment with SK-MEL-2 melanoma and with SW-620 colon was over 100 µM in each case.

`O=C(O)C1C2CC3CC2CC31` (configuration not stated): the TGI in the experiment with 786-0 renal, in the experiment with A498 renal, in the experiment with A549 NSCLC, with DMS 273 small cell lung, in the experiment with KM12 colon and with MOLT-4 leukemia was over 100 µM each time. The TGI with NCI-H23 lung, in the experiment on OVCAR-8 ovarian, with SK-MEL-2 melanoma and in the experiment on SW-620 colon was over 100 µM each time.

As for `c1ccc(CN(Cc2ccccn2)Cn2cccn2)nc1`, the TGI with 786-0 renal, in the experiment on A498 renal, in the experiment on A549 NSCLC, in the experiment on DMS 273 small cell lung, in the experiment with KM12 colon and with MOLT-4 leukemia was over 100 µM throughout. Besides, the TGI in the experiment with NCI-H23 lung, with OVCAR-8 ovarian, in the experiment with SK-MEL-2 melanoma and in the experiment with SW-620 colon was over 100 µM each time.

Regarding `O=C(NNc1ccc([N+](=O)[O-])cc1)C1OC(CO)C(O)C1O` (configuration not stated), the TGI in the experiment on 786-0 renal, with A498 renal, with A549 NSCLC, in the experiment with DMS 273 small cell lung, with KM12 colon and in the experiment with MOLT-4 leukemia was over 100 µM in each case. Also, the TGI in the experiment with NCI-H23 lung was over 100 µM; in the experiment on OVCAR-8 ovarian it was over 100 µM; in the experiment with SK-MEL-2 melanoma it was over 100 µM; with SW-620 colon, 71.3 µM.

On to `C/C(=N\N=C(N)N)c1sc(-c2nc(C)c(/C(C)=N/N=C(N)N)s2)nc1C`, for which the TGI was over 68.5 µM in the experiment with 786-0 renal; over 100 µM in the experiment on A498 renal; over 100 µM in the experiment on A549 NSCLC; over 100 µM in the experiment with DMS 273 small cell lung; over 100 µM in the experiment on KM12 colon; over 100 µM in the experiment on MOLT-4 leukemia. In addition, the TGI with NCI-H23 lung, in the experiment on OVCAR-8 ovarian, in the experiment on SK-MEL-2 melanoma and with SW-620 colon was over 100 µM throughout.

Turning to `Cc1cc(Br)cc(C)c1NC(=O)C(=O)C(C(=O)c1ccc(Cl)c(Cl)c1)C1OC(=O)c2ccccc21` (configuration not stated), the TGI in the experiment with 786-0 renal, with A498 renal, in the experiment on A549 NSCLC, in the experiment on DMS 273 small cell lung, with KM12 colon and with MOLT-4 leukemia was over 100 µM in each case. Also, the TGI in the experiment on NCI-H23 lung, in the experiment with OVCAR-8 ovarian, in the experiment with SK-MEL-2 melanoma and in the experiment on SW-620 colon was over 100 µM in each case.

Turning to `O=C1CCCc2c(O)ccc(O)c21`, the TGI in the experiment on 786-0 renal, with A498 renal, with A549 NSCLC, with DMS 273 small cell lung, in the experiment with KM12 colon and with MOLT-4 leukemia was over 100 µM in each case. Further, the TGI with NCI-H23 lung, in the experiment on OVCAR-8 ovarian, with SK-MEL-2 melanoma and with SW-620 colon was over 100 µM in each case.

Regarding `COc1ccc(-c2nc(N)nc(-c3cc(C)ccc3O)c2Cl)cc1`, the TGI with 786-0 renal, in the experiment with A498 renal, in the experiment with A549 NSCLC, in the experiment with DMS 273 small cell lung, in the experiment on KM12 colon and in the experiment with MOLT-4 leukemia was over 100 µM each time. Also, the TGI in the experiment with NCI-H23 lung, with OVCAR-8 ovarian and in the experiment with SW-620 colon was over 100 µM each time.

For the compound `Cc1ccc(NC(=O)CCC(=O)C(C#N)c2ccc(Cl)cc2)cc1C` (configuration not stated), the TGI in the experiment with 786-0 renal, in the experiment with A498 renal, with A549 NSCLC, with DMS 273 small cell lung, in the experiment on KM12 colon and in the experiment on MOLT-4 leukemia was over 100 µM in each case. The TGI in the experiment on NCI-H23 lung, in the experiment on OVCAR-8 ovarian, with SK-MEL-2 melanoma and with SW-620 colon was over 100 µM throughout.

Regarding `Cc1ccc(C)c2sc3cc(=O)ccc-3nc12`, the TGI was over 100 µM in the experiment with 786-0 renal; over 100 µM in the experiment with A549 NSCLC; over 100 µM with DMS 273 small cell lung; over 100 µM in the experiment on KM12 colon; 69.6 µM in the experiment with MOLT-4 leukemia; over 100 µM with NCI-H23 lung. The TGI in the experiment on OVCAR-8 ovarian, with SK-MEL-2 melanoma and in the experiment on SW-620 colon was over 100 µM each time.

As for `Cc1ccc(C)c(NC(=O)CCc2n[nH]c(=S)o2)c1`, the TGI in the experiment with 786-0 renal, in the experiment with A498 renal, with A549 NSCLC, in the experiment with DMS 273 small cell lung, with KM12 colon and in the experiment with MOLT-4 leukemia was over 100 µM throughout. For the same compound, the TGI with NCI-H23 lung, with OVCAR-8 ovarian and with SW-620 colon was over 100 µM in each case.

For `COc1ccc(/C=C/CO)cc1OC`, the TGI in the experiment on 786-0 renal, in the experiment on A549 NSCLC, with DMS 273 small cell lung, with KM12 colon, in the experiment with MOLT-4 leukemia and with NCI-H23 lung was over 100 µM in each case. Further, the TGI in the experiment on OVCAR-8 ovarian, in the experiment on SK-MEL-2 melanoma and in the experiment with SW-620 colon was over 100 µM throughout.
